From publication PMC10820528, “New Rare Triterpene Glycosides from Pacific Sun Star, Solaster pacificus, and Their Anticancer Activity” (Marine Drugs, 2023)

Assays:
[1] = tested on: breast cancer MDA-MB-231 cells; test: cells; assay type: cell-based
Experimental: (§1) We calculated the inhibiting concentration that cause death of 50% of cells (IC50) and the selectivity index (SI) of the compounds tested (Table 4).
(§2) The human embryonic kidney HEK 293 cells (ATCC® CRL-1573™), breast cancer MDA-MB-231 cells (ATCC® HTB-26™), and colorectal carcinoma HCT 116 cells (ATCC® CCL-247™) were purchased from the American Type Culture Collection (Manassas, VA, USA). The HEK 293 and MDA-MB-231 cells were cultured in DMEM; the HCT 116 cells were cultured in the McCoy’s 5A medium at 37 °C in a humidified atmosphere containing 5% CO2. The culture media were supplemented with 10% heat-inactivated FBS and a 1% penicillin/streptomycin solution. The number of passages was carefully controlled, and contamination by Mycoplasma was monitored on a regular basis.
(§3) Compounds 1–3, and 6–8 were dissolved in sterile dimethyl sulfoxide (DMSO), to prepare stock concentrations of 20 mM. Cells were treated with serially diluted 1–3, 6–8 (0.3–100 µM) (with the culture medium used as diluent) (the final concentration of DMSO was less than 0.5%). The vehicle control was the cells treated with an equivalent volume of DMSO (the final concentration was less than 0.5%) for all of the presented experiments.
(§4) HEK 293 (1.0 × 10^4/200 µL), HCT 116 (1.0 × 10^4/200 µL), and MDA-MB-231 (0.8 × 10^4/200 µL) cells were seeded in a 96-well plate and incubated for 24 h at 37 °C in a CO2 incubator. […] The cells were subsequently incubated with 15 µL of the MTS reagent for 3 h. The absorbance of each well was measured at 490/630 nm on a Power Wave XS microplate reader (BioTek, Winooski, VT, USA).
(§5) The IC50 concentration was calculated using the AAT-Bioquest® online calculator [24]. The selectivity index (SI) was calculated as described previously, using the following formula: SI = IC50 of the compounds for normal cells (HEK 293) divided by IC50 of the same compounds for the human colorectal adenocarcinoma and breast cancer (HCT 116 and MDA-MB-231) cell lines.

[2] = tested on: human embryonic kidney HEK 293 cells; test: cells; assay type: cell-based
Experimental: as §1, §2, §3, §4, §5

[3] = tested on: colorectal carcinoma HCT 116 cells; test: cells; assay type: cell-based
Experimental: We determined the cytotoxicity of compounds 1–3 and 6–8 against human embryonic kidney HEK 293, colorectal carcinoma HCT 116, and breast cancer MDA-MB-231 cells by the MTS assay, after 24 h of treatment with the compounds. We calculated the inhibiting concentration that cause death of 50% of cells (IC50) and the selectivity index (SI) of the compounds tested (Table 4).
as §2, §3, §4, §5

[4] = tested on: human colorectal carcinoma HCT 116 cells; test: Soft-agar clonogenic assay, HCT 116; assay type: cell-based; details: 14 days
Experimental: (§6) The soft-agar clonogenic assay was applied in order to assess the effect of compound 2 on the colony formation of human colorectal carcinoma HCT 116 and breast cancer MDA-MB-231 cells. As a result, compound 2 at concentrations of 0.6, 1.25, 2.5, and 5 µM decreased the number of colonies of HCT 116 cells by 11, 24, 52, and 97%, respectively (Figure 6a,b) and MDA-MB-231 cells by 20, 39, 61, and 80%, respectively (Figure 6c,d).
(§7) HCT 116 and MDA-MB-231 cells (2.4 × 10^4/mL) were treated with compound 2 (0.6, 1.25, 2.5, and 5 µM). Then, the cells were placed onto 0.3% BME agar containing 10% FBS, 2 mM L-glutamine, and 25 µg/mL gentamicin. The cultures were maintained at 37 °C in a 5% CO2 incubator for 14 days. The number of colonies was counted under an AE 20 Motic microscope using the ImageJ v. 1.50i software, bundled with 64-bit Java 1.6.0_24 (NIH, Bethesda, MD, USA).

[5] = tested on: breast cancer MDA-MB-231 cells; test: Soft-agar clonogenic assay, MDA-MB-231; assay type: cell-based, human; details: 14 days
Experimental: as §6, §7

[6] = tested on: human colorectal carcinoma HCT 116 cells; test: Scratch (wound-healing) assay, HCT 116; assay type: cell-based; details: for suppression of migration of HCT 116 cells: 48 h, compared to control at 48 h; for reduction of migration of HCT 116 cells: 72 h of treatment, compared to control at 72 h
Source text: (§8) Metastasis is the leading cause of cancer mortality. The metastatic cascade is a multistep process in which cancer cells are […], from the primary tumor to distant parts and tissues. Migration and plasticity of cancer cells, as well as the environment such as stromal and endothelial cells, are essential in metastasis. In this study, the migration ability (invasive potential) of colorectal carcinoma HCT 116 cells and breast cancer MDA-MB-231 cells and the anti-invasive effect of compound 2 were determined by the “wound-healing”, or scratch, method.
(§9) HCT 116 and MDA-MB-231 cells (3 × 10^5 cells/mL) were seeded in 6-well plates and grown to 80% confluence for 24 h. After removing the culture medium, the cells’ monolayer was scraped with a 200 µL sterile pipette tip, to create a straight scratch. Then, the cells were treated with compound 2 at concentrations of 0.6, 1.25, 2.5, and 5 µM and incubated for 24, 48, and 72 h. All experiments were set up in triplicate for each group. For image analysis, the cell migration into the wound area was photographed at the stages of 0, 24, 48, and 72 h through a Motic AE 20 microscope and using the ImageJ v. 1.50i software, bundled with 64-bit Java 1.6.0_24 (NIH, Bethesda, MD, USA). The cell migration distance was estimated by measuring the width of the wound, and was expressed as the percentage of each control (0 h) in relation to the mean of the wound-closure area.

[7] = tested on: breast cancer MDA-MB-231 cells; test: Scratch (wound-healing) assay, MDA-MB-231; assay type: cell-based; details: Homo sapiens, 24 h of treatment, compared to control at 24 h, read-out: inhibition of migration of MDA-MB-231 cells
Source text: as §8
as §9, with “1.50i software, bundled with 64-bit Java 1.6.0_24 (NIH, Bethesda, MD, USA).” left out

[8] = tested on: AsPC-1 human pancreatic cancer cells; design: method as in PMID 18837899; details: by induction of apoptosis; cited from earlier work
[9] = tested on: MDA-MB-231 human breast cancer cells; design: method as in PMID 21741966; details: concentration- and time-dependent; cited from earlier work
metastatic breast cancer = tested on: metastatic breast cancer; design: method as in PMID 21761157; details: syngeneic murine model of metastatic breast cancer; cited from earlier work

CO[C@@H]1[C@@H](O)[C@H](O[C@@H]2[C@@H](O)[C@H](O[C@H]3[C@H](O)[C@@H](O)[C@H](O[C@H]4[C@H](O[C@H]5CC[C@]6(C)C7=C(CC[C@H]6C5(C)C)[C@]5(C)C[C@H](OC(C)=O)[C@H]([C@@](C)(O)CCC=C(C)C)[C@@]5(CO)CC7)OC[C@@H](O)[C@@H]4O)O[C@@H]3C)O[C@H](CO)[C@H]2O)OC[C@H]1O [Compound 2, (20S)-3β-O-[3-O-methyl-β-D-xylopyranosyl-(1→3)-β-D-glucopyranosyl-(1→4)-β-D-quinovopyranosyl-(1→2)-β-D-xylopyranosyl]-16β-acetoxy,18,20-dihydroxy-5α-lanosta-8(9),24-diene]
cytotoxic activity in words, MDA-MB-231 [1]: Moderate | IC50 ([1]; Homo sapiens, MDA-MB-231, MTS assay, 24 h of cell incubation, mean ± SD, read-out: IC50, MDA-MB-231): 15.5 ± 1.6 µM | SI (selectivity index), MDA-MB-231 ([1]; mean IC50 against normal cells (HEK 293)/mean IC50 against MDA-MB-231, 24 h): 1.2 | cytotoxic activity in words, HEK 293 [2]: Moderate | IC50 ([2]; Homo sapiens, HEK293, MTS assay, 24 h of cell incubation, mean ± SD, read-out: IC50, HEK 293): 18.5 ± 2.5 µM | cytotoxic activity in words, HCT 116 [3]: Moderate | IC50 ([3]; Homo sapiens, HCT-116, MTS assay, 24 h of cell incubation, mean ± SD, read-out: IC50, HCT 116): 18.6 ± 1.4 µM | SI (selectivity index), HCT 116 ([3]; mean IC50 against normal cells (HEK 293)/mean IC50 against HCT 116, 24 h): 1 | decrease of the number of colonies, HCT 116 ([4]; 0.6 µM): 11% | decrease of the number of colonies, HCT 116 ([4]; 1.25 µM): 24% | decrease of the number of colonies, HCT 116 ([4]; 2.5 µM): 52% | decrease of the number of colonies, HCT 116 ([4]; 5 µM): 97% | decrease of the number of colonies, MDA-MB-231 ([5]; 0.6 µM): 20% | decrease of the number of colonies, MDA-MB-231 ([5]; 1.25 µM): 39% | decrease of the number of colonies, MDA-MB-231 ([5]; 2.5 µM): 61% | decrease of the number of colonies, MDA-MB-231 ([5]; 5 µM): 80% | suppression of migration of HCT 116 cells ([6]; 0.6 µM): 8% | reduction of migration of HCT 116 cells ([6]; 0.6 µM): 3% | suppression of migration of HCT 116 cells ([6]; 1.25 µM): 18% | reduction of migration of HCT 116 cells ([6]; 1.25 µM): 3% | suppression of migration of HCT 116 cells ([6]; 2.5 µM): 42% | reduction of migration of HCT 116 cells ([6]; 2.5 µM): 23% | suppression of migration of HCT 116 cells ([6]; 5 µM): 41% | reduction of migration of HCT 116 cells ([6]; 5 µM): 41% | inhibition at 0.6 µM ([6]; Homo sapiens, HCT-116, 0.6 µM, 24 h of treatment, compared to control 24 h, read-out: inhibition of migration of HCT 116 cells): 5% | inhibition at 1.25 µM ([6]; Homo sapiens, HCT-116, 1.25 µM, 24 h of treatment, compared to control 24 h, read-out: inhibition of migration of HCT 116 cells): 17% | inhibition at 2.5 µM ([6]; Homo sapiens, HCT-116, 2.5 µM, 24 h of treatment, compared to control 24 h, read-out: inhibition of migration of HCT 116 cells): 30% | inhibition at 5 µM ([6]; Homo sapiens, HCT-116, 5 µM, 24 h of treatment, compared to control 24 h, read-out: inhibition of migration of HCT 116 cells): 37% | inhibition at 5 µM [7]: 15%

CO[C@@H]1[C@@H](O)[C@H](O[C@@H]2[C@@H](O)[C@H](O[C@H]3[C@H](O)[C@@H](O[C@@H]4OC[C@@H](O)[C@H](O)[C@H]4O)[C@H](O[C@H]4[C@H](OC5CC[C@]6(C)[C@H]7CCC89C(=O)O[C@@](C)(CCCC(C)C)C8[C@@H](OC(C)=O)C[C@@]9(C)C7=CC[C@H]6C5(C)C)OC[C@@H](OS(=O)(=O)O)[C@@H]4O)O[C@@H]3C)OC[C@H]2O)O[C@H](CO)[C@H]1O (some centres unmarked) [frondoside A]
proliferation of AsPC-1 cells [8]: inhibits proliferation | viability of MDA-MB-231 cells [9]: decreases the viability | antimetastatic effect (metastatic breast cancer): potent antimetastatic effect
